Measured values as given in patent publication US20140221301A1, “COMBINATION TREATMENT FOR CANCER” (priority 2011, published 2014).

Key:
[1] = tested on: primary human AML cells; type: in vivo, NOD-SCID mice
Description: FIG. 3. Tigecycline has anti-leukemia activity in vivo. (A, B) Human leukemia cells (OCI-AML2) were injected subcutaneously into the flank of SCID mice. Seven days after injection, once tumors were palpable, mice were treated with tigecycline (50 mg/kg or 100 mg/kg twice daily by i.p. injection) or vehicle control (n=10 per group). Fourteen days after injection of cells, mice were sacrificed, tumors excised and the volume and mass of the tumors were measured. The tumor mass and the mean volume+SD are shown. Differences in tumor volume and mass were analyzed by an unpaired t-test: *p<0.001. (C) Tumours from two control mice, and three tigecycline-treated mice were excised after 5 days of treatment and total proteins were extracted and analyzed by western blotting for Cox-1, Cox-2, Cox-4, and tubulin. […] Following treatment, human leukemia cell engraftment in the injected right femur was measured by FACS analysis for human CD45^+CD19^−CD33^+ cells. […] Six weeks later, human leukemia cell engraftment in the injected right femur was measured by FACS analysis for human CD45^+CD19^−CD33^+cells. […]
To assess tigecycline in mouse models of primary AML, primary human AML cells were isolated form a fresh peripheral blood sample from a patient with AML. A frozen aliquot was thawed, counted and resuspended in PBS. […]

[2] = tested on: solid tumour cell lines; experiment: Cell growth and viability, MTS assay, solid tumour cell lines; type: cell-based; conditions: 72 hours
Description: (§1) FIG. 1. […] (A) TEX and (B) M9-ENL1 cells were plated in 96-well plates and drugs were added to the wells (5 μL per well) for final concentrations of 10 μM (shown) and 1 μM. Cell growth and viability was measured at 48 hours (M9-ENL-1) and 72 hours (TEX) by MTS assay. Cell viability is shown for each compound as a percent of cells treated with DMSO alone. (C) Leukemia, (D) myeloma, and (E) solid tumor cell lines were seeded in 96-well plates and then treated with increasing concentrations of tigecycline. Cell growth and viability was measured at 72 hours by MTS assay. Cell viability is expressed as mean percentage plus or minus SD (n=3) relative to vehicle-treated cells. […] Cell viability was measured at 72 hours by MTS assay. Cell viability is expressed as mean percentage plus or minus SD (n=3) relative to vehicle-treated cells.
(§2) Human leukemia (OCI-AML2, HL60, U937) cell lines were maintained in RPMI 1640 medium. Myeloma (LP-1, KMS11, 8226, JJN3, OP-M2) cell lines were maintained in Iscove's media. […]
(§3) Cell growth and viability was assessed by the MTS assay (Promega, Madison, Wis.) according to the manufacturer's instructions. Apoptosis and cell death was measured by Annexin V-fluroscein isothiocyanate (FITC; Biovision Research Products, Mountain View, Calif.), propidium iodide staining and flow cytometry according to the manufacturer's instructions and as previously described^30.

[3] = tested on: XIAP, grp78; experiment: Immunoblotting of cytosolic-ribosome translated proteins; type: cell-based, human; conditions: TEX, OCI-AML2, primary AML cells
Description: FIG. 4. […] (A) Cells from TEX, OCI-AML2 and two primary AML patients were treated with increasing concentrations (2.5 μM and 5 μM) of tigecycline for 36 and 48 hours of tigecycline. Total proteins were extracted and analyzed by western blotting for Cox-1, Cox-2, Cox-4, grp78, XIAP, actin and tubulin. (B) TEX and AML patient cells were treated with increasing concentrations (2.5 μM and 5 μM) of tigecycline. Cox-1, Cox-2, and Cox-4 mRNA expression relative 18S was determined by quantitative RT-PCR. Data is shown as mean±SD. (C) TEX cells were treated with increasing concentrations of tigecycline and chloramphenicol (CAP) for 72 hours. Complex I, II and IV enzyme activity relative to citrate synthase activity was determined as described in materials and methods. (D) Cells from TEX, primary AML patients, and normal donors were treated with increasing concentrations of tigecycline. Mitochondrial membrane potential (ΔΨ) was determined by staining cells with JC-1 dye, and flow cytometry analysis (Red/Green ratio). Reactive oxygen species generation (ROS) was determined by staining with h2-DCFDA and Dihydroethidium (DHE).
Total cell lysates were prepared from cells as described previously^32. […] Protein concentrations were measured by the DC Protein assay. […]

[4] = tested on: myeloma cell lines; experiment: Cell growth and viability, MTS assay, myeloma cell lines; type: cell-based; conditions: 72 hours
Description: as §1, §2, §3

## CN(C)c1cc(NC(=O)CNC(C)(C)C)c(O)c2c1C[C@H]1C[C@H]3[C@H](N(C)C)C(O)=C(C(N)=O)C(=O)[C@@]3(O)C(O)=C1C2=O [tigecycline]
[1]; 100 mg/kg i.p. daily for three weeks
  engraftment of human AML primary cells (CD45+CD33+CD19-): significantly decreased
[1]; mouse, in vivo
  toxicity in treated mice: without gross organ toxicity or loss of body weight
[2]
  IC50: > 10 µM
[3]
  expression of XIAP or grp78: did not alter
[4]
  IC50: > 10 µM
